Experiments:
[1] = target: recombinantly expressed human PARP-1 enzyme (Homo sapiens, UniProt P09874); experiment: PARP enzyme assay (half-maximum inhibitor concentration); format: biochemical; settings: DNA-activated PARP-1, 200 μM NAD, tritium-labeled NAD incorporation, room temperature, 1 hour, pH 8.0
Description: Pharmacological Investigations PARP Enzyme Assay
The half-maximum inhibitor concentration is determined by incubating the substances to be tested with the DNA-activated, recombinantly expressed and purified PARP-1 enzyme. Specifically, various concentrations of the test substance are incubated in 50 μl of reaction solution, which contains 50 mM Tris, 5 mM MgCl2, 1 mM DTT, 200 μM NAD, 0.1 mCi/ml tritium-labeled NAD, 0.1 mg/ml DNA, 0.1 mg/ml histones, 2 μg/ml recombinantly expressed human PARP-1 enzyme, pH=8.0, at room temperature for 1 hour. The reaction is stopped by adding 150 μl of 20% trichloroacetic acid, and the radiolabeled protein constituents are precipitated. After incubation on ice for 10 minutes, the labeled, insoluble constituents are separated off through a glass fiber filter and, after washing with 20% trichloroacetic acid three times, the radioactivity incorporated by the PARP-1 enzyme is measured by radioluminescence.
IC-50 values were determined in this way for the following compounds: […]

[2] = target: purified human PARP-1 enzyme (Homo sapiens, UniProt P09874); experiment: Enzyme inhibition assay with various substrate concentrations (apparent Ki); format: biochemical; settings: various concentrations of tritium-labeled NAD, room temperature, 10 min; Michaelis-Menten, purely competitive inhibition assumed; read-out: app. Ki
Chain of purified human PARP-1 enzyme (P09874 whole entry): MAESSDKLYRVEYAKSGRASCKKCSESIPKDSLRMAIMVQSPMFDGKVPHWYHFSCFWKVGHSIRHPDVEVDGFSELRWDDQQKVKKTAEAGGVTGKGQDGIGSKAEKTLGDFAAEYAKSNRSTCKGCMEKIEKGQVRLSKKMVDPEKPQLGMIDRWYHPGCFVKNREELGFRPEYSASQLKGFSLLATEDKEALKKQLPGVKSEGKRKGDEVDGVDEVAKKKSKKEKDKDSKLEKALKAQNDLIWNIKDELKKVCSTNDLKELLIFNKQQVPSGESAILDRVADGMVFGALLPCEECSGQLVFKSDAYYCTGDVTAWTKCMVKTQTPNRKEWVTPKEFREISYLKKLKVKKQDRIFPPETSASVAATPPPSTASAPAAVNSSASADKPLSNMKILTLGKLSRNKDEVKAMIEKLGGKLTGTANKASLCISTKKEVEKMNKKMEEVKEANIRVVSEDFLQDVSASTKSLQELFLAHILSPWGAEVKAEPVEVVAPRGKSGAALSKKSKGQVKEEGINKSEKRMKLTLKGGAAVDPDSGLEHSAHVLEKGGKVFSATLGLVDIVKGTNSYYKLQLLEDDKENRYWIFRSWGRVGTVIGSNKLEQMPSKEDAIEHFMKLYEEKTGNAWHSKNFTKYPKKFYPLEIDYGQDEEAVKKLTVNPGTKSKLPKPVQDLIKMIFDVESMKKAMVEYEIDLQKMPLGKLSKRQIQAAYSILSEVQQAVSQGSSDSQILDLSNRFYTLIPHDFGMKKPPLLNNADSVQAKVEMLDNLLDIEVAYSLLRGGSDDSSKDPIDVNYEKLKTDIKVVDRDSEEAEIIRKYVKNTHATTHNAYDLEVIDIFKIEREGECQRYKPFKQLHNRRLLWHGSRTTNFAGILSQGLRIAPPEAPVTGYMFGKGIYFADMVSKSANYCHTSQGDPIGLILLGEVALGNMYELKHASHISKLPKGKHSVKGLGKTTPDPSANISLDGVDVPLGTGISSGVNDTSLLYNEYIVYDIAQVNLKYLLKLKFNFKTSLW
Description: Enzyme Inhibition Assay with Various Substrate Concentrations
Apparent Ki values of the test substances are determined in an enzymatic assay using the purified human PARP-1 enzyme. Specifically, various concentrations of the tritium-labeled substrate NAD are incubated with an identical concentration of the test substance in 50 μl of reaction solution, which contains 50 mM tris, 5 mM MgCl2, 1 mM DTT, 0.1 mg/ml DNA, 0.1 mg/ml histones, 2 μg/ml recombinantly expressed human PARP-1 enzyme, pH=8.0, at room temperature for 10 min. The reaction is stopped by adding 150 μl of 20% trichloroacetic acid, and the radiolabeled protein constituents are precipitated. After incubation on ice for 10 minutes, the labeled, insoluble constituents are separated off through a glass fiber filter and, after washing with 20% trichloroacetic acid three times, the radioactivity incorporated by the PARP-1 enzyme is measured by radioluminescence. Evaluation of the incorporation rates determined in this way as a function of the concentration of the substrate NAD affords the apparent Ki values according to Michaelis-Menten kinetics, assuming that the mechanism of inhibition is purely competitive.
(§1) EC-50 values and apparent Ki values are determined in this way for all the following selected compounds: […]

[3] = tested on: rat cardiomyocytes (H9c2 cell line); experiment: ATP consumption assay in cardiomyoblasts; format: cell-based; settings: H9c2 cells, 15 min preincubation, 300 μM H2O2 for 1 hour, cellular ATP content by luciferase reaction
Description: ATP Consumption Assay in Cardiomyoblasts
The activity of the test substances in cells is ascertained by means of an ATP consumption assay. For this purpose, rat cardiomyocytes (H9c2 cell line) are seeded in a 96-well plate (40 000 cells per well, RPMI1640; 10% FCS) and kept at 37° C. and 5% CO2 for 16 hours. The cells are washed with PBS and incubated under identical conditions with various concentrations of the test substance in medium for 15 min. After addition of 300 μM H2O2, the cells are kept at 37° C., 5% CO2 for a further hour and lysed, and the cellular content of ATP is determined by means of luciferase reaction. The half-maximum effective concentration of the substances (EC50) is determined as the concentration at which the ATP content of the cells has reached half the value which can be measured with a maximally effective concentration of the same substance.
as §1

Chain of recombinantly expressed human PARP-1 enzyme (P09874 whole entry): as above

Row | Structure (SMILES) | IC50 [1] | Ki [2] | EC50 [3]
1 | CC(=O)c1cccc(Nc2c(C)[nH]c(=O)c3c2CCCC3)c1 [Example 16, 4-(3-acetylphenylamino)-3-methyl-5,6,7,8-tetrahydro-2H-isoquinolin-1-one] | 90 nM | 54 nM | 200 nM
2 | O=c1[nH]cc(Nc2cccc(O)c2)c2c1CCCC2 [Example 1, 4-(3-hydroxyphenylamino)-5,6,7,8-tetrahydro-2H-isoquinolin-1-one] | 1310 nM | – | –
3 | O=c1[nH]cc(Nc2nc(-c3ccncc3)cs2)c2c1CCCC2 [Example 3, 4-(4-pyridin-4-ylthiazol-2-ylamino)-5,6,7,8-tetrahydro-2H-isoquinolin-1-one] | 9830 nM | – | –
4 | O=C(NCc1ccc([N+](=O)[O-])cc1)c1cncc(-c2c[nH]c(=O)c3c2CCCC3)c1 [Example 28, N-(4-nitrobenzyl)-5-(1-oxo-1,2,5,6,7,8-hexahydroisoquinolin-4-yl)nicotinamide] | 400 nM | – | –
5 | COc1ccccc1CNC(=O)c1cncc(-c2c[nH]c(=O)c3c2CCCC3)c1 [Example 46, N-(2-methoxybenzyl)-5-(1-oxo-1,2,5,6,7,8-hexahydroisoquinolin-4-yl)nicotinamide] | 3130 nM | – | –

Second part, led by results:

Row | IC50 [1] | Ki [2] | Structure (SMILES) | EC50 [3]
6 | 300 nM | 15 nM | Cc1[nH]c(=O)c2c(c1-c1ccc(CN3CCCC3)o1)CCCC2 [Example 54, 3-methyl-4-(5-pyrrolidin-1-ylmethylfuran-2-yl)-5,6,7,8-tetrahydro-2H-isoquinolin-1-one] | 330 nM
7 | 250 nM | 40 nM | CCCCNCc1ccc(-c2c[nH]c(=O)c3c2CCCC3)o1 [Example 78, 4-(5-butylaminomethylfuran-2-yl)-5,6,7,8-tetrahydro-2H-isoquinolin-1-one] | 520 nM
8 | 280 nM | 16 nM | Cc1[nH]c(=O)c2c(c1-c1ccc(CO)o1)CCCC2 [Example 9, 4-(5-Hydroxymethylfuran-2-yl)-3-methyl-5,6,7,8-tetrahydro-2H-isoquinolin-1-one] | 1570 nM
9 | 220 nM | 31 nM | O=C(NCCN1CCCC1)c1cccc(Nc2c[nH]c(=O)c3c2CCCC3)c1 [Example 24, 3-(1-Oxo-1,2,5,6,7,8-hexahydroisoquinolin-4-ylamino)-N-(2-pyrrolidin-1-ylethyl)benzamide] | –
10 | 110 nM | 24 nM | O=c1[nH]cc(-c2ccc(CNCC(O)c3ccccc3)o2)c2c1CCCC2 (centres unmarked) [Example 72, 4-{5-[(2-hydroxy-2-phenyl-ethylamino)methyl]furan-2-yl}-5,6,7,8-tetrahydro-2H-isoquinolin-1-one] | 380 nM
11 | 1070 nM | – | CC(C)CC(=O)NCc1ccc(-c2c[nH]c(=O)c3c2CCCC3)o1 [Example 81, 3-methyl-N-[5-(1-oxo-1,2,5,6,7,8-hexahydroisoquinolin-4-yl)furan-2-ylmethyl]butyramide] | –
12 | 110 nM | – | O=c1[nH]cc(-c2ccc(CN3CCCC3)o2)c2c1CCCC2 [Example 61, 4-(5-pyrrolidin-1-ylmethylfuran-2-yl)-5,6,7,8-tetrahydro-2H-isoquinolin-1-one] | –

Reference: US7795278B2 (sanofi-aventis Deutschland GmbH, priority 2004, dated 2010)
